{"source": "patent US5220017A", "about": "“Cholecystokinin antagonists” (Merck & Co., Inc., priority 1992, dated 1993)", "key": {"CCK-B receptors": {"system": "CCK-B receptors", "settings": "literature, in words; cited from earlier work"}, "CCK receptor": {"system": "CCK receptor", "settings": "literature, in words; cited from earlier work"}, "[1]": {"molecular_target": "T1, CCK receptor (rat pancreas) (Rattus norvegicus, UniProt P30551)", "T1 construct": "The whole pancreas was dissected free of fat tissue and was homogenized; from tissue; host or cells: whole pancreas membranes, male Sprague-Dawley rat", "T1 sequence (P30551 1-444)": "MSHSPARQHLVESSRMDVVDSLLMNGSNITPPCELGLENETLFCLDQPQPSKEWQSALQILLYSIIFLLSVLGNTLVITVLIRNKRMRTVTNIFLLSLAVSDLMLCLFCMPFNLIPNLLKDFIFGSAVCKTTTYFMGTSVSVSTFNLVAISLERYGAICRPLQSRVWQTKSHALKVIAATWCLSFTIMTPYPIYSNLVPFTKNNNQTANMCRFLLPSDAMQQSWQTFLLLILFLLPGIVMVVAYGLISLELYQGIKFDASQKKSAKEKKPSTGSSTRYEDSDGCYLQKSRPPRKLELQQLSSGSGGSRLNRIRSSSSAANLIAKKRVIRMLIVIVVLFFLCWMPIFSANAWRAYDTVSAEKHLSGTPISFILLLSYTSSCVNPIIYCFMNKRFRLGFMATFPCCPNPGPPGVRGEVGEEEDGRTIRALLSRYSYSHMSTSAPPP", "assay": "CCK Receptor Binding (Pancreas), 125I-CCK-8 displacement", "set-up": "species or system rat (male Sprague-Dawley)", "description": "1. CCK Receptor Binding (Pancreas)\nCCK-8 sulphated was radiolabelled with ^125 I-Bolton Hunter reagent (2000 Ci/mmole). Receptor binding was performed according to Chang and Lotti (Proc. Natl. Acad. Sci. 83, 4923-4926, 1986) with minor modifications.\nMale Sprague-Dawley rats (150-200 g) were sacrificed by decapitation. The whole pancreas was dissected free of fat tissue and was homogenized in 25 volumes of ice-cold 10 mM Hepes buffer with 0.1% soya bean trypsin inhibitor (pH 7.4 at 25° C.) with a Kinematica Polytron. The homogenates were centrifuged at 47,800 g for 10 min. Pellets were resuspended in 10 volumes of binding assay buffer (20 mM Hepes, 1 mM EGTA, 5 mM MgCl2, 150 mM NaCl, bacitracin 0.25 mg/ml, soya bean trypsin inhibitor 0.1 mg/ml, and bovine serum albumin 2 mg/ml, pH 6.5 at 25° C.) using a teflon homogenizer, 15 strokes at 500 rpm. The homogenate was further diluted in binding assay buffer to give a final concentration of 0.5 mg original wet weight/1 ml buffer. […] All assays were run in duplicate. […] The radioactivity on the filters was counted with a LKB gamma counter. […]\n(§1) Drug displacement studies were performed with at least 10 concentrations of compounds of formula 1 and the IC50 values were determined by regression analysis."}, "[2]": {"molecular_target": "T2, CCK receptor (guinea pig brain cortex) (Cavia porcellus, UniProt H0VZC5)", "T2 construct": "the cortex was removed and homogenized in 25 mL ice-cold 0.32M sucrose; from tissue; host or cells: brain cortex P2 membranes, male Hartley guinea pig", "T2 sequence (H0VZC5 1-426)": "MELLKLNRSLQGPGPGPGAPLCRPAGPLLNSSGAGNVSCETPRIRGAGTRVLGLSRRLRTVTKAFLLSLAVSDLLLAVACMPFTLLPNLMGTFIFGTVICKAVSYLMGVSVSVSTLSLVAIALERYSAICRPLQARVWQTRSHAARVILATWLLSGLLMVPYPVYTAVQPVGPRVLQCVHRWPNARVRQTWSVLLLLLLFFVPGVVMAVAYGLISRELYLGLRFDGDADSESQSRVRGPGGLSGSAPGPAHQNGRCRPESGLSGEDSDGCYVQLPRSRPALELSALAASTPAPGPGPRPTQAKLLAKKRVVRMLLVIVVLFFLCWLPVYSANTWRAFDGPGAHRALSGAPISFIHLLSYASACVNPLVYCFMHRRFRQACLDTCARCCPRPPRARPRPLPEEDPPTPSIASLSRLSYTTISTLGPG", "assay": "CCK Receptor Binding (Brain), 125I-CCK-8 displacement", "set-up": "species or system guinea pig (male Hartley)", "settings": "guinea pig cortex membranes, 50 pM 125I-CCK-8, 25° C., 2 hours, pH 6.5", "description": "2. CCK Receptor Binding (Brain)\nCCK-8 sulphated was radiolabelled and the binding was performed according to the description for the pancreas method with minor modifications.\nMale Hartley guinea pigs (300-500 g) were sacrificed by decapitation and the cortex was removed and homogenized in 25 mL ice-cold 0.32M sucrose. The homogenates were centrifuged at 1000 g for 10 minutes and the resulting supernatant was recentrifuged at 20,000 g for 20 minutes. […] All assays were run in duplicate. The reaction mixtures were incubated at 25° C. for 2 hours and then the reaction was terminated on Whatman GF/C filters by rapid filtration (Brandell 24 well cell Harvester) with 3×5 ml washes of cold 100 mM NaCl. The radioactivity on the filters was then counted with a LKB gamma counter.\nEffect of The Compounds of Formula I on ^125 I-CCK-8 receptor binding\nas §1"}, "gastrin": {"system": "gastrin", "settings": "literature, in words; cited from earlier work"}}, "note": "Non-standard residues stand in square brackets, D forms with d. Residues, ends and D or L forms follow the SMILES beside them. *: point of attachment. sY = N[C@@H](Cc1ccc(OS(=O)(=O)O)cc1)C(=O)O; Cbz = O=C(OCc1ccccc1)*; Boc = CC(C)(C)OC(=O)*", "data": [{"smiles": "Cc1cccc(NC(=O)N[C@@H]2N=C(c3ccccc3)c3ccccc3N(C)C2=O)c1", "note": "[(R)-N-(2,3-dihydro-1-methyl-2-oxo-5-phenyl-1H-1,4-benzodiazepin-3-yl)-N^1-(3-methylphenyl) urea]", "values": [{"measurement": "CCK-B antagonist potency and selectivity", "setting": "CCK-B receptors", "result": "potent and selective antagonist of CCK-B receptors"}]}, {"smiles": "CSCC[C@H](NC(=O)OC(C)(C)C)C(=O)N[C@@H](CC(=O)O)C(=O)N[C@@H](Cc1ccccc1)C(N)=O", "note": "[Boc-Met-Asp-Phe-NH2] (Boc-Met-Asp-Phe-NH2)", "values": [{"measurement": "CCK antagonist/agonist character", "setting": "CCK receptor", "result": "can function as CCK antagonists"}]}, {"smiles": "CSCC[C@H](NC(=O)[C@H](Cc1ccc(OS(=O)(=O)O)cc1)NC(=O)OCc1ccccc1)C(=O)NCC(=O)N[C@@H](Cc1c[nH]c2ccccc12)C(=O)N[C@@H](CCSC)C(=O)N[C@@H](CC(=O)O)C(N)=O", "note": "[Cbz-Tyr(SO3 H)-Met-Gly-Trp-Met-Asp-NH2] (Cbz-[sY]MGWMD-NH2)", "values": [{"measurement": "CCK antagonist/agonist character", "setting": "CCK receptor", "result": "partial agonist"}]}, {"smiles": "Cc1cccc(N(CCC(=O)O)C(=O)NC2N=C(c3ccccc3)c3ccccc3N(C)C2=O)c1", "note": "(stereo not shown) [Example 1, N-{1,3-Dihydro-1-methyl-2-oxo-5-phenyl-1H-1,4-benzodiazepin-3-yl}-N'-carboxyethyl-N'-{[3-methylphenyl]-urea}]", "values": [{"measurement": "IC50", "setting": "[1]", "result": "> 3", "unit": "µM"}, {"measurement": "IC50", "setting": "[2]", "result": 3680, "unit": "nM"}]}, {"smiles": "Cc1cccc(NC(=O)N(CCC(=O)O)C2N=C(c3ccccc3)c3ccccc3N(C)C2=O)c1", "note": "(stereo not shown) [Example 2, N-{1,3-Dihydro-1-methyl-2-oxo-5-phenyl-1H-1,4-benzodiazepin-3-yl}-N-carboxyethyl-N'-{[3-methylphenyl]-urea}]", "values": [{"measurement": "IC50", "setting": "[1]", "result": "> 3", "unit": "µM"}, {"measurement": "IC50", "setting": "[2]", "result": 510, "unit": "nM"}]}, {"smiles": "CSCC[C@H](N)C(=O)N[C@@H](CC(=O)O)C(=O)N[C@@H](Cc1ccccc1)C(N)=O", "note": "[Met-Asp-Phe-NH2] (H-Met-Asp-Phe-NH2)", "values": [{"measurement": "CCK antagonist/agonist character", "setting": "CCK receptor", "result": "can function as CCK antagonists"}]}, {"smiles": "CCCC(=O)Nc1nc2c(ncn2C2O[C@H]3COP(=O)(O)O[C@@H]3[C@@H]2OC(=O)CCC)c(=O)[nH]1", "note": "(stereo partly shown) [dibutyryl cyclic GMP]", "values": [{"measurement": "CCK antagonist/agonist character", "setting": "CCK receptor", "result": "most potent"}]}, {"smiles": "CCCN(CCC)C(=O)C(CCC(=O)O)NC(=O)c1ccccc1", "note": "(stereo not shown) [proglumide]", "values": [{"measurement": "gastrin antagonism in vitro", "setting": "gastrin", "result": "very weak in vitro antagonists"}]}]}
